This is an account of results in BindingDB's records for doi:10.1016/s0960-894x(02)00131-2 (Shire Biochem, 2002).

The target of the assay is Prothrombin/thrombin (Homo sapiens) (UniProt P00734). The assay can be described thus: Inhibition of amidolytic activity of thrombin.

For orientation: Ki means the equilibrium dissociation constant of an inhibitor or competing ligand from its target. A low value points to tighter binding.

Molecule `N=C(N)c1ccc(CNC(=O)[C@@H]2CC[C@H]3CN(S(=O)(=O)CC(c4ccccc4)c4ccccc4)CC(=O)N32)cc1` [(6S,8aS)-2-(2,2-Diphenyl-ethanesulfonyl)-4-oxo-octahydro-pyrrolo[1,2-a]pyrazine-6-carboxylic acid 4-carbamimidoyl-benzylamide] gave a Ki of 1 nM. In other words, the single-digit nanomolar range.

In turn, `N=C(N)N1CCC(CNC(=O)[C@@H]2CC[C@H]3CN(S(=O)(=O)CC(c4ccccc4)c4ccccc4)CC(=O)N32)CC1` [(6S,8aS)-2-(2,2-Diphenyl-ethanesulfonyl)-4-oxo-octahydro-pyrrolo[1,2-a]pyrazine-6-carboxylic acid (1-carbamimidoyl-piperidin-4-ylmethyl)-amide] yielded a Ki of 8 nM.

The molecule `N[C@H]1CC[C@H](CNC(=O)[C@@H]2CC[C@H]3CN(S(=O)(=O)CC(c4ccccc4)c4ccccc4)CC(=O)N32)CC1` [(6S,8aS)-2-(2,2-Diphenyl-ethanesulfonyl)-4-oxo-octahydro-pyrrolo[1,2-a]pyrazine-6-carboxylic acid (4-amino-cyclohexylmethyl)-amide] displayed an inhibition constant Ki of 5 nM. This Ki is about 1.6-fold lower than that of the molecule before.

`Cc1nc(N)ccc1CNC(=O)[C@@H]1CC[C@H]2CN(S(=O)(=O)CC(c3ccccc3)c3ccccc3)CC(=O)N21` [(6S,8aS)-2-(2,2-Diphenyl-ethanesulfonyl)-4-oxo-octahydro-pyrrolo[1,2-a]pyrazine-6-carboxylic acid (6-amino-2-methyl-pyridin-3-ylmethyl)-amide] returned a Ki of 48 nM.

Molecule `Nc1ccc(CNC(=O)[C@@H]2CC[C@H]3CN(S(=O)(=O)CC(c4ccccc4)c4ccccc4)CC(=O)N32)cn1` [(6S,8aS)-2-(2,2-Diphenyl-ethanesulfonyl)-4-oxo-octahydro-pyrrolo[1,2-a]pyrazine-6-carboxylic acid (6-amino-pyridin-3-ylmethyl)-amide] registered an inhibitory constant (Ki) of 35 nM.

Take `N=C(NO)N1CCC(CNC(=O)[C@@H]2CC[C@H]3CN(S(=O)(=O)CC(c4ccccc4)c4ccccc4)CC(=O)N32)CC1` [(6S,8aS)-2-(2,2-Diphenyl-ethanesulfonyl)-4-oxo-octahydro-pyrrolo[1,2-a]pyrazine-6-carboxylic acid [1-(N-hydroxycarbamimidoyl)-piperidin-4-ylmethyl]-amide]: the affinity, expressed as Ki, was 2 nM. This Ki lies about 18-fold lower than the previous one.

In the case of `N=C(NO)N1CCC(CNC(=O)[C@@H]2CC[C@H]3CN(C(=O)CC(c4ccccc4)c4ccccc4)CC(=O)N32)CC1` [(6S,8aS)-2-(3,3-Diphenyl-propionyl)-4-oxo-octahydro-pyrrolo[1,2-a]pyrazine-6-carboxylic acid [1-(N-hydroxycarbamimidoyl)-piperidin-4-ylmethyl]-amide], the affinity, expressed as Ki, was 25 nM. Compared with the last molecule, the Ki is about 12-fold higher.

In the case of `Cc1cc(C(=N)N)ccc1CNC(=O)[C@@H]1CC[C@H]2CN(S(=O)(=O)C(c3ccccc3)c3ccccc3)CC(=O)N21` [(6S,8aS)-2-(Diphenyl-methanesulfonyl)-4-oxo-octahydro-pyrrolo[1,2-a]pyrazine-6-carboxylic acid 4-carbamimidoyl-2-methyl-benzylamide], the Ki was 2 nM. This Ki lies about 12-fold lower than the previous one.

For the molecule `N=C(N)c1ccc(CNC(=O)[C@@H]2CC[C@H]3CN(S(=O)(=O)C(c4ccccc4)c4ccccc4)CC(=O)N32)cc1` [(6S,8aS)-2-(Diphenyl-methanesulfonyl)-4-oxo-octahydro-pyrrolo[1,2-a]pyrazine-6-carboxylic acid 4-carbamimidoyl-benzylamide], the inhibition constant (Ki) turned out to be 1 nM.

For `N=C(N)N1CCC(CNC(=O)[C@@H]2CC[C@H]3CN(S(=O)(=O)C(c4ccccc4)c4ccccc4)CC(=O)N32)CC1` [(6S,8aS)-2-(Diphenyl-methanesulfonyl)-4-oxo-octahydro-pyrrolo[1,2-a]pyrazine-6-carboxylic acid (1-carbamimidoyl-piperidin-4-ylmethyl)-amide], the Ki was 9 nM.

Turning to `O=C(NCc1ccc2nc[nH]c2c1)[C@@H]1CC[C@H]2CN(S(=O)(=O)C(c3ccccc3)c3ccccc3)CC(=O)N21` [(6S,8aS)-2-(Diphenyl-methanesulfonyl)-4-oxo-octahydro-pyrrolo[1,2-a]pyrazine-6-carboxylic acid (1H-benzoimidazol-5-ylmethyl)-amide], the inhibition constant Ki is 75 nM.

Turning to `N[C@H]1CC[C@H](CNC(=O)[C@@H]2CC[C@H]3CN(S(=O)(=O)C(c4ccccc4)c4ccccc4)CC(=O)N32)CC1` [(6S,8aS)-2-(Diphenyl-methanesulfonyl)-4-oxo-octahydro-pyrrolo[1,2-a]pyrazine-6-carboxylic acid (4-amino-cyclohexylmethyl)-amide], the inhibition constant Ki was found to be 5 nM.

For the molecule `N=C(N)[C@H]1CC[C@H](CNC(=O)[C@@H]2CC[C@H]3CN(S(=O)(=O)C(c4ccccc4)c4ccccc4)CC(=O)N32)CC1` [(6S,8aS)-2-(Diphenyl-methanesulfonyl)-4-oxo-octahydro-pyrrolo[1,2-a]pyrazine-6-carboxylic acid (4-carbamimidoyl-cyclohexylmethyl)-amide], the inhibition constant (Ki) is 2 nM.

In the case of `N=C(N)c1ccc2c(c1)CCC2NC(=O)[C@@H]1CC[C@H]2CN(S(=O)(=O)C(c3ccccc3)c3ccccc3)CC(=O)N21` (stereo partly drawn) [(6S,8aS)-2-(Diphenyl-methanesulfonyl)-4-oxo-octahydro-pyrrolo[1,2-a]pyrazine-6-carboxylic acid (5-carbamimidoyl-indan-1-yl)-amide], the Ki came to 75 nM.

The molecule `Cc1nc(N)ccc1CNC(=O)[C@@H]1CC[C@H]2CN(S(=O)(=O)C(c3ccccc3)c3ccccc3)CC(=O)N21` [(6S,8aS)-2-(Diphenyl-methanesulfonyl)-4-oxo-octahydro-pyrrolo[1,2-a]pyrazine-6-carboxylic acid (6-amino-2-methyl-pyridin-3-ylmethyl)-amide] showed an inhibitory constant (Ki) of 10 nM. Against the preceding molecule, the Ki is about 7.5-fold lower.

With `N=C(NO)N1CCC(CNC(=O)[C@@H]2CC[C@H]3CN(S(=O)(=O)C(c4ccccc4)c4ccccc4)CC(=O)N32)CC1` [(6S,8aS)-2-(Diphenyl-methanesulfonyl)-4-oxo-octahydro-pyrrolo[1,2-a]pyrazine-6-carboxylic acid [1-(N-hydroxycarbamimidoyl)-piperidin-4-ylmethyl]-amide], the Ki amounted to 2 nM.

As to `Nc1ncc(CCNC(=O)[C@@H]2CC[C@H]3CN(S(=O)(=O)C(c4ccccc4)c4ccccc4)CC(=O)N32)[nH]1` [(6S,8aS)-2-(Diphenyl-methanesulfonyl)-4-oxo-octahydro-pyrrolo[1,2-a]pyrazine-6-carboxylic acid [2-(2-amino-1H-imidazol-4-yl)-ethyl]-amide], affinity was put at a Ki of 135 nM.

On to `N=C(NO)N1CCC(CNC(=O)[C@@H]2CC[C@H]3CN(S(=O)(=O)CCc4ccccc4)CC(=O)N32)CC1` [(6S,8aS)-4-Oxo-2-(2-phenyl-ethanesulfonyl)-octahydro-pyrrolo[1,2-a]pyrazine-6-carboxylic acid [1-(N-hydroxycarbamimidoyl)-piperidin-4-ylmethyl]-amide], for which the affinity corresponds to a Ki of 14 nM.

Consider `N=C(N)N1CCC(CNC(=O)[C@@H]2CC[C@H]3CN(C(=O)CCc4ccccc4)CC(=O)N32)CC1` [(6S,8aS)-4-Oxo-2-(3-phenyl-propionyl)-octahydro-pyrrolo[1,2-a]pyrazine-6-carboxylic acid (1-carbamimidoyl-piperidin-4-ylmethyl)-amide], for which the Ki came out at 180 nM. This Ki lies about 13-fold higher than the previous one.
